Experimental data reported in patent US9862713B2, “Substituted bicyclic heteroaryl compounds as RXR agonists” (CONNEXIOS LIFE SCIENCES PVT. LTD., priority 2014, dated 2018).

Legend:
[1] = test system: male ZDF rats; assay: Effect of RXR agonist on male ZDF rats; format: in vivo; settings: 10 mg/kg, BID, po
Protocol: Five week old male ZDF rats from Charles River & age matched control rats were housed under temperature 22±3° C., relative humidity 50-70%, 12 hour light and 12 hour dark cycle with artificial fluorescent tubes. The animals were housed in a group of 3 in standard polypropylene cages with stainless steel top grill having facilities for pelleted food and drinking water in bottle. The animals were fed with normal chow diet (Provomi), Bisleri, commercially available mineral drinking water was provided ad libitum. The lean control and the male […] rats were randomized to either vehicle or drug (Compound 40, 10 mg/kg, BID, po) treatment groups by body weight, fed glucose and glucose. The treatment was continued for 8 weeks. Body weight, fasting and fed glucose and fast triglycerides (tail snip) were monitored weekly. At the end of week 8 of the treatment, glucose and insulin HbAlc levels were followed at different time intervals. Blood samples collected from tail nipping method HbAlc levels by DCA vantage (SIEMENS).
Measurement of Nerve conduction velocity: Nerve conduction velocity was measured using Electronic stimulator connected to AD Power Lab 8/30, AD instruments. Briefly animals were anaesthetized and three different electrodes (+ve, −ve and neutral) were connected from Bio amp to animal. +ve electrode was placed on front side of fourth finger on hind paw, −ve electrode was placed just above +ve electrode at a distance of 10 mm and neutral electrode was placed on abdomen region. Voltage at a rate of 5 mv with pulse width of 0.001 sec was provided on two different regions at a distance of 1 cm on sciatic nerve. Nerve conduction was recorded using Lab chart software in scope view panel. Latencies at two different points were measured by taking the mouse cursor at the beginning of peaks. […] Measurement of Hemodynamic Parameters by Using Millar MPVS System:
At the end of 22 weeks of treatment period animal were subjected to hemodynamic measurement using Millar MPVS system, briefly animal was anesthetized using urethane and all surgical procedure was done on thermal plate, both jugular vein and carotid artery was cannulated in which jugular vein was used for saline calibration whereas rat millar Cather was introduced into left ventricle through carotid artery was be used for recording the Pressure volume loop. Blood was withdrawn from the tail vein puncture by pricking with needle into pre-filled EDTA tubes, mix and placed on ice immediately, centrifuge at 10000 rpm for 10 minutes using cold centrifuge. The plasma separated was subjected for estimation of ANP, BNP, Osteprotegerin Using USCN kit and Serum urea and BUN using Robonik kit.

[2] = test system: DIO mice; assay: Effect of RXR agonist on DIO mice (high fat diet); format: in vivo, male C57BL/6J mice
Protocol: Six week old male C57BL/6J mice were selected, acclimatized for a period of 1 week, Animals were assigned to either chow (10% kcal from fat) or high fat diet (HFD) (D12492; 60% kcal from fat), Research Diets, Inc., New Jersey, USA. Animals were housed in polypropylene cages and maintained at 23±1° C. at 60±10% humidity and 12 hour cycles of light and dark with free access to feed and water (ad libitum). After 11 weeks of the diet intervention, the HFD fed animals were assigned to specific treatment groups based upon body weight, glucose AUC during OGTT, fasting and fed blood glucose and fasting TG. The lean control mice (n=10) were fed with normal chow diet while the treatment group (n=10) and HFD Control (n=10) with high fat diet throughout the experimental period. Treatment group received Compound 40 at a dose of 5-20 mg/kg b.wt, once daily, po as suspension in 1% MC (methyl cellulose) as vehicle. Lean control and HFD controls animals were administered with vehicle.
Weekly body weight & daily feed consumption was recorded. The blood collected from tail vein was subjected for estimation of glucose and TG using Co-agucheck TG strip. OGTT was performed in 6 h fasted mice with 2 g/kg, of oral glucose challenge after 9 weeks of treatment.
Measurement of Thermogenesis: Body temperatures were assessed at the end of treatment period using a rectal probe. For the cold exposure experiment, mice were housed individually and transferred to a cold environment with an ambient temperature of 4° C. Temperature was measured every 15 min for 75 min and then brought to room temperature, then rectal temperature was measured for further 20 min with 10 min interval. After 10 weeks of treatment, blood was collected, from retro-orbital bleeding, for biochemical measurements. Then animals were euthanized and necropsied, the liver was excised immediately, weighed and taken to estimate liver triglyceride (TG). Different adipose depots were separated and weighed.
Animals were sacrificed after terminal measurement of fasting glycerol, free fatty acid, cholesterol, LDL levels.

[3] = test system: male Syrian Hamsters; assay: High cholesterol diet induced hyperlipidaemia in hamsters; format: in vivo; settings: 10 mg/kg b.wt, 8-12 weeks
Protocol: Eight to ten week old male Syrian Hamsters were housed in polypropylene cages provided with sterile paddy husk as bedding material. The animals were maintained at temperature 22±3° C., relative humidity 50-70%, 15-18 air cycle changes with 12 h dark and light cycle. The animals were provided with rodent feed (ad libitum) supplied by harlan laboratories to normal control animals and treatment groups were fed with High Cholesterol diet, prepared in-house by mixing 11.5% coconut oil, 11.5% corn oil, 0.5% cholesterol, and 0.25% deoxycholate in chow diet. Bisleri water (ad libitum) was provided. The animals were randomized based on body weight and divided into control and treatment groups. Compound 40 was administered, at a dose of 10 mg/kg b.wt, for a period of 8-12 weeks to the treatment group. Daily feed consumption, weekly body weight, total cholesterol and triglyceride levels were estimated.

[4] = test system: MCF7 breast cancer cell line; assay: MCF7 breast cancer cell line: growth, BrdU incorporation, ROS, DNA fragmentation; format: cell-based
[5] = test system: HL-60 promyelocytic leukemia cell line; assay: HL-60 differentiation (NBT reduction); format: cell-based; settings: 72 h culture
Protocol: Progression of promyelocytic leukemia can be abrogated by their differentiation. […] In order to estimate the differentiating ability of compound-40, HL-60 promyelocytic leukemia cell line was used as an in vitro model of the disease. HL-60 cells were cultured for 72 h as either control or under treatment as mentioned. After 72 h of culture, cells were exposed to nitro blue tetrazolium (NBT) solution containing phorbol myristate acetate (PMA) for 1 h at 37° C. Differentiated cells have increased oxidative burst potential which reduces NBT. Levels of reduced NBT were measured at 540 nm absorption.

[6] = 5-20 mg/kg b.wt, once daily, po
[7] = 5-20 mg/kg b.wt, once daily, po, 10 weeks
[8] = 5-20 mg/kg b.wt, once daily, po, OGTT after 9 weeks

CC1(C)CCC(C)(C)c2sc(N(CC3CC3)c3ccc(C(=O)O)cn3)nc21 [Compound 40, 6-[(Cyclopropylmethyl) (4,4,7,7-tetramethyl-4,5,6,7-tetrahydro-1,3-benzothiazol-2-yl)amino]pyridine-3-carboxylic acid]
CRP levels [1]: decreasing CRP levels | HbAlc levels [1]: very significant improvement | activity of SDH (glucose oxidation in muscle) [1]: significantly increased the activity of SDH | fasting TG levels [1]: significantly reduces fasting TG levels | fasting glucose [1]: significant control of Fasting glucose | glucose disposal [1]: improves glucose disposal | hyperinsulinemia (insulin levels) [1]: significantly reduced hyperinsulinemia | levels of biomarkers of Cardio vascular risk [1]: improvement in levels of biomarkers of Cardio vascular risk | prandial hyperglycemia (fed glucose) [1]: both an early onset and sustained control of prandial hyperglycemia | Cardiac function ([1]; Millar MPVS hemodynamic measurement): Substantial improvement | BUN levels ([1]; end of 22 weeks): Substantial decrease | Serum Creatinine levels ([1]; end of 22 weeks): Substantial decrease | hypertriglyceridemia ([1]; fasting TG during treatment and there after): does not cause hypertriglyceridemia | Nerve conduction velocity (NCV) ([1]; sciatic nerve): Significant improvement | HOMA-IR [2, 6]: improves HOMA-IR | UCP1 expression levels in inguinal white adipose tissues [2, 6]: significantly enhances | circulating free fatty acid levels [2, 6]: significant decrease | circulating glycerol levels [2, 6]: significant decrease | ectopic fat accumulation [2, 6]: without increasing ectopic fat accumulation | fasting TG [2, 6]: significantly reduces fasting TG | fed cholesterol levels [2, 6]: significantly reduces fed cholesterol levels | adipose depot weights [2, 7]: decrease in various adipose depot weights | body weight gain [2, 7]: significantly reduced body weight gain | glucose disposal (OGTT) [2, 8]: improves glucose disposal | hyperinsulinemia (insulin levels) [2, 8]: significantly reduces hyperinsulinemia | non-shivering thermogenesis ([2]; cold exposure 4° C., rectal temperature): significantly enhances non-shivering thermogenesis | LDL-c [3]: significant reduction | Non-HDL cholesterol [3]: significant reduction | total cholesterol [3]: significant reduction | BrdU incorporation ([4]; MCF7): significantly reduced | apoptosis (DNA fragmentation) ([4]; MCF7): increased levels of apoptosis | cellular stress (ROS levels) ([4]; MCF7): significant increase in cellular stress | cell growth ([4]; MCF7, 3 uM): reduced cell growth | HL-60 cells differentiation ([5]; NBT reduction at 540 nm): significantly increased | HL-60 differentiation in combination with ATRA ([5]; together with ATRA): additive effect with ATRA
